Assay results: patent US20230134986A1, “GLUCOSE TRIPTOLIDE CONJUGATES AND USES THEREOF” (The Johns Hopkins University, priority 2020, published 2023)

Tests used:
[1] = system: HEK 293T cells; assay: HEK293T cell proliferation assay ([3H]-thymidine incorporation); format: cell-based, human; conditions: for IC50: Homo sapiens, HEK-293T, 24 h, read-out: IC50 ± SEM
Description: Cells and culture conditions. Primary astrocytes (Lonza, Walkersville, Md.; ABM™ Basal Media with AGM™ SingleQuots™ Supplement Pack), fibroblast (ATCC; Fibroblast Basal Medium (ATCC© PCS-201-030™) with Fibroblast Growth Kit-Serum-free (ATCC© PCS-201-040™)), airway epithelial cell (ATCC; Airway Epithelial Cell Basal Medium (ATCC© PCS-300-030™) with Bronchial Epithelial Cell Growth Kit (ATCC© PCS-300-040™)), renal proximal tubule (ATCC; Renal Epithelial Cell Basal Medium (ATCC© PCS-400-030™) with Renal Epithelial Cell Growth Kit (ATCC© PCS-400-040™)), prostate epithelial cell (Lonza; PrEGM™ BulletKit™) and mammary epithelial cell (Lonza; MEBM™ BulletKit™) were kept in a humidified incubator at 37° C. adjusted to 5% CO2. Prostate (PC3, LNCaP, DU-145), breast (MDA-MB-231, MDA-MB-453, SK-BR-3), head and neck (A253, Detroit 562, SCC-25), melanoma (SK-Mel-3, SK-Mel-1, RPMI-7951), pancreatic (CfPAC-1, BxPC3, SW1990), lung (A549, NCI-H1299, NCI-H1437) and liver (SNU-475, SK-HEP-1, SNU-387) cancer cell lines were obtained from ATCC and cultured in their respective media (prostate cells: RPMI-1640, MDA-MB-231: RPMI-1640, MDA-MB-453: Leibovitz's L-15, SK-BR-3: McCoy's 5a, A253: McCoy's 5a, Detroit 562: EMEM, SCC-25: DMEM, SK-Mel-3: McCoy's 5a, SK-Mel-1: EMEM, RPMI-7951: EMEM), CfPAC-1: IMDM, BxPC3: RPMI-1640, SW1990: Leibovitz's L-15), A549: F-12K, NCI-H1299: RPMI-1640, NCI-H1437: RPMI-1640, SNU-475: RPMI-1640, SK-HEP-1: EMEM, SNU-387: RPMI-1640. All media were supplemented with 10% (vol/vol) filtered fetal bovine serum (FBS, Invitrogen, Carlsbad, Calif.), 1% penicillin/streptomycin (Invitrogen) and maintained in a humidified incubator at 37° C. with 5% CO2 except for MDA-MB-453 and SW1990 grown at 37° C. without CO2 control. Wild type (ATCC) and C342T XPB knock-in cells (named T7115) of Human Embryonic Kidney 293T (HEK293T), HeLa (ATCC) were cultured in DMEM (GIBCO) with 10% (vol/vol) filtered fetal bovine serum (FBS, Invitrogen, Carlsbad, Calif.), 1% penicillin/streptomycin (Invitrogen).
Proliferation and viability assays. [^3H]-thymidine incorporation. HEK293T cells (10,000 cells/well) were seeded into 96-well plates then cultured in DMEM plus 10% FBS and 1% penicillin/streptomycin at 37° C. with 5% CO2 overnight. Drugs were added at indicated concentrations and incubation was continued for an additional 24 h. For hypoxia, PC3 (5,000 cells/well) were exposed to 1% O2 (Airgas) in a humidified hypoxia chamber (Billups-Rothenberg) in 37° C. for 48 h prior to drug exposure for 48 h. Treated cells were then pulsed using an aliquot of 1 μCi of [^3H]-thymidine (Perkin Elmer) per well for an additional 6 h. Radiolabelled cells were harvested onto a printed Filtermat A glass fiber filter (Perkin Elmer) using a Tomtec Harvester 96 Mach III M. Betaplate Scint (Perkin Elmer) scintillation fluid was added to radiolabelled filters followed by scintillation counting on Microbeta2 LumiJET Microplate Counter (Perkin Elmer).

[2] = system: MDA-MB-231; assay: XTT viability assay, MDA-MB-231; format: cell-based; conditions: Homo sapiens; Breast Cancer, MDA-MB-231, XTT
Description: (§1) Cells and culture conditions. Primary astrocytes (Lonza, Walkersville, Md.; ABM™ Basal Media with AGM™ SingleQuots™ Supplement Pack), fibroblast (ATCC; Fibroblast Basal Medium (ATCC© PCS-201-030™) with Fibroblast Growth Kit-Serum-free (ATCC© PCS-201-040™)), airway epithelial cell (ATCC; Airway Epithelial Cell Basal Medium (ATCC© PCS-300-030™) with Bronchial Epithelial Cell Growth Kit (ATCC© PCS-300-040™)), renal proximal tubule (ATCC; Renal Epithelial Cell Basal Medium (ATCC© PCS-400-030™) with Renal Epithelial Cell Growth Kit (ATCC© PCS-400-040™)), prostate epithelial cell (Lonza; PrEGM™ BulletKit™) and mammary epithelial cell (Lonza; MEBM™ BulletKit™) were kept in a humidified incubator at 37° C. adjusted to 5% CO2. […]
(§2) XTT assay. […] Cell viability was measured using the R&D Systemsm TACS XTT Cell Proliferation/Viability Assay (R&D Systems, Minneapolis, Minn.).

[3] = system: MDA-MB-453; assay: XTT viability assay, MDA-MB-453; format: cell-based; conditions: Homo sapiens; Breast Cancer, MDA-MB-453, XTT
Description: as §1, §2

[4] = system: SK-BR-3; assay: XTT viability assay, SK-BR-3; format: cell-based; conditions: Homo sapiens; Breast Cancer, SK-BR-3, XTT
Description: as §1, §2

[5] = system: A253; assay: XTT viability assay, A253; format: cell-based; conditions: Homo sapiens, Head and Neck Cancer
Description: as §1, §2

[6] = system: Detroit 562; assay: XTT viability assay, Detroit 562; format: cell-based; conditions: Homo sapiens; Head and Neck Cancer, Detroit 562, XTT
Description: as §1, §2

[7] = system: SK-Mel-3; assay: XTT viability assay, SK-Mel-3; format: cell-based; conditions: Homo sapiens, SK-MEL3; Melanoma, SK-Mel-3, XTT
Description: as §1, §2

[8] = system: CfPAC-1; assay: XTT viability assay, CfPAC-1; format: cell-based; conditions: Homo sapiens; Pancreatic Cancer, CfPAC-1, XTT
Description: as §1, §2

[9] = system: BxPC3; assay: XTT viability assay, BxPC3; format: cell-based; conditions: Homo sapiens, BXPC-3, Pancreatic Cancer
Description: as §1, §2

[10] = system: SNU-475; assay: XTT viability assay, SNU-475; format: cell-based; conditions: Homo sapiens; Liver Cancer, SNU-475, XTT
Description: as §1, §2

[11] = system: Prostate Epithelial cell; assay: XTT viability assay, prostate epithelial cells; format: cell-based; conditions: Homo sapiens, Primary normal cells
Description: as §1, §2

[12] = system: Mammary Epithelial cell; assay: XTT viability assay, mammary epithelial cells; format: cell-based; conditions: Homo sapiens, Primary normal cells
Description: as §1, §2

[13] = system: HUVEC; assay: XTT viability assay, HUVEC; format: cell-based; conditions: Homo sapiens, Primary normal cells
[14] = system: PC3; assay: XTT viability assay, PC3; format: cell-based; conditions: Homo sapiens, PC-3, Prostate Cancer
Description: as §1, §2

Structure (SMILES)	IC50 [1] [nM]	fold more potent against cancer cells in vitro than compound 10 ([1]; in vitro) [fold]	IC50 [2] [nM]	IC50 [3] [nM]	IC50 [4] [nM]	IC50 [5] [nM]	IC50 [6] [nM]	IC50 [7] [nM]	IC50 [8] [nM]	IC50 [9] [nM]	IC50 [10] [nM]	IC50 [11] [nM]	IC50 [12] [nM]	IC50 [13] [nM]	IC50 [14] [nM]
CC(C)[C@]12O[C@H]1[C@@H]1O[C@]13[C@]1(O[C@H]1C[C@H]1C4=C(CC[C@@]13C)C(=O)OC4)[C@@H]2OC(=O)CCCO[C@@H]1OC(CO)[C@@H](O)C(O)C1O (stereo in doubt) [Compound 1]	71	4	260 ± 100	530 ± 280	2160 ± 1590	540 ± 400	1240 ± 610	440 ± 250	470 ± 320	5000 ± 2830	4600 ± 4550	4720 ± 3480	4310 ± 1030	3980 ± 1150	
CC(C)[C@]12O[C@H]1[C@@H]1O[C@]13[C@]1(O[C@H]1C[C@H]1C4=C(CC[C@@]13C)C(=O)OC4)[C@@H]2OC(=O)CCC(=O)O[C@@H]1OC(CO)[C@@H](O)C(O)C1O (stereo partly shown) [Compound 10]	279 ± 0.611		280 ± 10	530 ± 200	1300	710 ± 470	1420 ± 830	420 ± 340	510 ± 350	4150 ± 180	3850 ± 3260	5270 ± 2290	2560 ± 290	1370 ± 730	500 ± 100
